# Assay results as given in patent publication US4075336A, “Thiazines and method” (Kanto Ishiseiyaku Co., Ltd., priority 1976, dated 1978).
# Key:
# [1] = Acute toxicity, intraperitoneal (LD50, deaths); assay type: in vivo; conditions: mouse, in vivo, ip; intraperitoneal, dd strain mice, males and females
# Experimental: (§1) Animals [dd strain mice; 5 groups of males and 5 groups of females, each group consisting of 8 animals] were intraperitoneally given the compound of this invention in doses of 2000, 2400, 2880, 3456 and 5000 mg/kg. […] Based on this finding, it may be concluded that the value of LD50 is at least more than 5000 mg/kg.
# dd strain mice [2] = test: Acute toxicity, intraperitoneal (LD50, deaths); assay type: in vivo
# Experimental: as §1
# rats = test: Analgesic effect, Randall-Selitto method (pain threshold, carrageenan-inflamed paw); assay type: in vivo
# Experimental: Using an analgesic effect measuring apparatus (made by Ugo Basile Co., Ltd.), pain thresholds in rats were measured as a function of elapsed time and compared with normal pain threshold values which had previously been determined. Each group consisted of 5 animals, which were subcutaneously given 0.1 ml of a 1% carrageenan suspension on their right paws. The test compounds were given orally, 1 hour before the carrageenan medication. The experiments were repeated twice under the same conditions. The mean values of the results obtained for 10 animals were compared with those of methiazinic acid.
# The results obtained are shown in Table 1, wherein "OS" refers to oral administration.
# Wister-strain rats = test: Anti-inflammatory effect, carrageenan-induced edema; assay type: in vivo; conditions: for inhibitory percent: vs control
# Experimental: (Carrageenen-induced edema)
# Wister-strain rats (each group consisting of 5 animals) were subcutaneously given 0.1 ml of a 1% carrageenan suspension on their right paws. The volumes of the right paws were measured prior to the administration, and thereafter were measured with elapsed time. The inhibitory percent was calculated, in comparison with a control, on the basis of the volume of edema induced. The volume was estimated with reference to the volume before the carrageenan-injection. The test compounds were orally administered 1 hour before the carrageenan-injection. The same experiments were repeated twice. The mean values of the results in all 10 animals were compared with those of methiazinic acid.
# dd strain mice [3] = conditions: methiazinic acid; source of value not given; cited from earlier work
# [4] = 50 mg/kg per os, inflammated paw
# [5] = 100 mg/kg per os, inflammated paw
smiles,measurement,setting,value
"COc1ccc(C2NC(=O)c3ccccc3S2)cc1O (centres unmarked) [Compound of this invention, 4-oxo-2-(3-hydroxy-4-methoxyphenyl)-2,3-dihydro-5,6-benzo-1,3-thiazine]",LD50,[1],> 5000 mg/kg
same,toxicity relative to that of methiazinic acid,dd strain mice [2]; from LD50 values,less than one/tenth
same,deaths,"dd strain mice [2]; intraperitoneal, 2000, 2400, 2880, 3456 and 5000 mg/kg, male and female dd strain mice",no deaths were observed
same,Analgesic coefficient,rats; [4],0.73
same,Pain threshold after 30 min.,rats; [4],62.5 mm Hg
same,Pain threshold after 60 min.,rats; [4],57.7 mm Hg
same,Pain threshold after 90 min.,rats; [4],48.0 mm Hg
same,Pain threshold after 120 min.,rats; [4],41.8 mm Hg
same,Pain threshold after 180 min.,rats; [4],36.8 mm Hg
same,Pain threshold after 240 min.,rats; [4],44.2 mm Hg
same,"Pain threshold, before medication",rats; [4],66.8 mm Hg
same,Analgesic coefficient,"rats; 50 mg/kg per os, normal paw",0.93
same,Pain threshold after 30 min.,"rats; 50 mg/kg per os, normal paw",66.7 mm Hg
same,Pain threshold after 60 min.,"rats; 50 mg/kg per os, normal paw",66.0 mm Hg
same,Pain threshold after 90 min.,"rats; 50 mg/kg per os, normal paw",64.0 mm Hg
same,Pain threshold after 120 min.,"rats; 50 mg/kg per os, normal paw",61.7 mm Hg
same,Pain threshold after 180 min.,"rats; 50 mg/kg per os, normal paw",57.3 mm Hg
same,Pain threshold after 240 min.,"rats; 50 mg/kg per os, normal paw",60.8 mm Hg
same,"Pain threshold, before medication","rats; 50 mg/kg per os, normal paw",67.3 mm Hg
same,Analgesic coefficient,rats; [5],0.82
same,Pain threshold after 30 min.,rats; [5],66.7 mm Hg
same,Pain threshold after 60 min.,rats; [5],63.7 mm Hg
same,Pain threshold after 90 min.,rats; [5],57.2 mm Hg
same,Pain threshold after 120 min.,rats; [5],49.0 mm Hg
same,Pain threshold after 180 min.,rats; [5],43.3 mm Hg
same,Pain threshold after 240 min.,rats; [5],43.2 mm Hg
same,"Pain threshold, before medication",rats; [5],65.6 mm Hg
same,Analgesic coefficient,"rats; 100 mg/kg per os, normal paw",0.96
same,Pain threshold after 30 min.,"rats; 100 mg/kg per os, normal paw",65.0 mm Hg
same,Pain threshold after 60 min.,"rats; 100 mg/kg per os, normal paw",65.7 mm Hg
same,Pain threshold after 90 min.,"rats; 100 mg/kg per os, normal paw",65.2 mm Hg
same,Pain threshold after 120 min.,"rats; 100 mg/kg per os, normal paw",62.5 mm Hg
same,Pain threshold after 180 min.,"rats; 100 mg/kg per os, normal paw",61.0 mm Hg
same,Pain threshold after 240 min.,"rats; 100 mg/kg per os, normal paw",61.2 mm Hg
same,"Pain threshold, before medication","rats; 100 mg/kg per os, normal paw",66.0 mm Hg
same,analgesic effect (in words),"rats; 50 and 100 mg/kg, oral",clearly exerts analgesic effects
same,duration and strength of analgesic effect compared with methiazinic acid (in words),"rats; 50 and 100 mg/kg, oral",about the same duration and strength of effect as methiazinic acid
same,edema percent,"Wister-strain rats; 50 mg/kg per os, 1 hr.",29.3%
same,inhibitory percent,"Wister-strain rats; 50 mg/kg per os, 1 hr.",39.2%
same,edema percent,"Wister-strain rats; 50 mg/kg per os, 2 hrs.",43.1%
same,inhibitory percent,"Wister-strain rats; 50 mg/kg per os, 2 hrs.",32.6%
same,edema percent,"Wister-strain rats; 50 mg/kg per os, 3 hrs.",43.1%
same,inhibitory percent,"Wister-strain rats; 50 mg/kg per os, 3 hrs.",37.3%
same,edema percent,"Wister-strain rats; 50 mg/kg per os, 4 hrs.",42.4%
same,inhibitory percent,"Wister-strain rats; 50 mg/kg per os, 4 hrs.",32.1%
same,edema percent,"Wister-strain rats; 50 mg/kg per os, 5 hrs.",37.4%
same,inhibitory percent,"Wister-strain rats; 50 mg/kg per os, 5 hrs.",36.4%
same,edema percent,"Wister-strain rats; 100 mg/kg per os, 1 hr.",24.1%
same,inhibitory percent,"Wister-strain rats; 100 mg/kg per os, 1 hr.",42.1%
same,edema percent,"Wister-strain rats; 100 mg/kg per os, 2 hrs.",31.5%
same,inhibitory percent,"Wister-strain rats; 100 mg/kg per os, 2 hrs.",49.9%
same,edema percent,"Wister-strain rats; 100 mg/kg per os, 3 hrs.",34.6%
same,inhibitory percent,"Wister-strain rats; 100 mg/kg per os, 3 hrs.",50.4%
same,edema percent,"Wister-strain rats; 100 mg/kg per os, 4 hrs.",33.9%
same,inhibitory percent,"Wister-strain rats; 100 mg/kg per os, 4 hrs.",47.5%
same,edema percent,"Wister-strain rats; 100 mg/kg per os, 5 hrs.",35.5%
same,inhibitory percent,"Wister-strain rats; 100 mg/kg per os, 5 hrs.",39.1%
same,anti-inflammatory effect compared with methiazinic acid (in words),Wister-strain rats; 50 and 100 mg/kg per os,very similar to that of methiazinic acid
same,duration of anti-inflammatory effect (in words),Wister-strain rats; 50 and 100 mg/kg per os,"long duration effect, which was observed even after 5 hours"
same,anti-inflammatory effect 1 hour after administration (in words),"Wister-strain rats; 50 and 100 mg/kg per os, 1 hour",significant effect 1 hour after administration
"CN1c2ccccc2Sc2ccc(CC(=O)O)cc21 [Methiazinic acid, α-(10-methyl-2-pheno-thiazinyl)-acetic acid, reference compound]",LD50,dd strain mice [3],about 500 mg/kg
same,Analgesic coefficient,rats; [4],0.74
same,Pain threshold after 30 min.,rats; [4],62.7 mm Hg
same,Pain threshold after 60 min.,rats; [4],57.7 mm Hg
same,Pain threshold after 90 min.,rats; [4],48.9 mm Hg
same,Pain threshold after 120 min.,rats; [4],43.5 mm Hg
same,Pain threshold after 180 min.,rats; [4],39.0 mm Hg
same,Pain threshold after 240 min.,rats; [4],44.5 mm Hg
same,"Pain threshold, before medication",rats; [4],66.8 mm Hg
same,Analgesic coefficient,"rats; 50 mg/kg per os, normal paw",0.94
same,Pain threshold after 30 min.,"rats; 50 mg/kg per os, normal paw",66.2 mm Hg
same,Pain threshold after 60 min.,"rats; 50 mg/kg per os, normal paw",65.3 mm Hg
same,Pain threshold after 90 min.,"rats; 50 mg/kg per os, normal paw",63.8 mm Hg
same,Pain threshold after 120 min.,"rats; 50 mg/kg per os, normal paw",62.0 mm Hg
same,Pain threshold after 180 min.,"rats; 50 mg/kg per os, normal paw",59.7 mm Hg
same,Pain threshold after 240 min.,"rats; 50 mg/kg per os, normal paw",61.3 mm Hg
same,"Pain threshold, before medication","rats; 50 mg/kg per os, normal paw",67.2 mm Hg
same,Analgesic coefficient,rats; [5],0.83
same,Pain threshold after 30 min.,rats; [5],69.3 mm Hg
same,Pain threshold after 60 min.,rats; [5],66.7 mm Hg
same,Pain threshold after 90 min.,rats; [5],57.3 mm Hg
same,Pain threshold after 120 min.,rats; [5],49.5 mm Hg
same,Pain threshold after 180 min.,rats; [5],47.2 mm Hg
same,Pain threshold after 240 min.,rats; [5],47.2 mm Hg
same,"Pain threshold, before medication",rats; [5],67.7 mm Hg
same,Analgesic coefficient,"rats; 100 mg/kg per os, normal paw",0.98
same,Pain threshold after 30 min.,"rats; 100 mg/kg per os, normal paw",69.0 mm Hg
same,Pain threshold after 60 min.,"rats; 100 mg/kg per os, normal paw",66.7 mm Hg
same,Pain threshold after 90 min.,"rats; 100 mg/kg per os, normal paw",65.5 mm Hg
same,Pain threshold after 120 min.,"rats; 100 mg/kg per os, normal paw",64.8 mm Hg
same,Pain threshold after 180 min.,"rats; 100 mg/kg per os, normal paw",62.8 mm Hg
same,Pain threshold after 240 min.,"rats; 100 mg/kg per os, normal paw",64.0 mm Hg
same,"Pain threshold, before medication","rats; 100 mg/kg per os, normal paw",66.9 mm Hg
same,edema percent,"Wister-strain rats; 50 mg/kg per os, 1 hr.",38.8%
same,inhibitory percent,"Wister-strain rats; 50 mg/kg per os, 1 hr.",19.6%
same,edema percent,"Wister-strain rats; 50 mg/kg per os, 2 hrs.",47.7%
same,inhibitory percent,"Wister-strain rats; 50 mg/kg per os, 2 hrs.",25.5%
same,edema percent,"Wister-strain rats; 50 mg/kg per os, 3 hrs.",48.8%
same,inhibitory percent,"Wister-strain rats; 50 mg/kg per os, 3 hrs.",29.2%
same,edema percent,"Wister-strain rats; 50 mg/kg per os, 4 hrs.",46.7%
same,inhibitory percent,"Wister-strain rats; 50 mg/kg per os, 4 hrs.",25.2%
same,edema percent,"Wister-strain rats; 50 mg/kg per os, 5 hrs.",39.4%
same,inhibitory percent,"Wister-strain rats; 50 mg/kg per os, 5 hrs.",32.9%
same,edema percent,"Wister-strain rats; 100 mg/kg per os, 1 hr.",34.2%
same,inhibitory percent,"Wister-strain rats; 100 mg/kg per os, 1 hr.",17.7%
same,edema percent,"Wister-strain rats; 100 mg/kg per os, 2 hrs.",38.1%
same,inhibitory percent,"Wister-strain rats; 100 mg/kg per os, 2 hrs.",39.3%
same,edema percent,"Wister-strain rats; 100 mg/kg per os, 3 hrs.",40.1%
same,inhibitory percent,"Wister-strain rats; 100 mg/kg per os, 3 hrs.",42.4%
same,edema percent,"Wister-strain rats; 100 mg/kg per os, 4 hrs.",39.7%
same,inhibitory percent,"Wister-strain rats; 100 mg/kg per os, 4 hrs.",38.5%
same,edema percent,"Wister-strain rats; 100 mg/kg per os, 5 hrs.",36.0%
same,inhibitory percent,"Wister-strain rats; 100 mg/kg per os, 5 hrs.",38.3%
